Reference: patent US12589087B2, “Enantiomer selective action on neurotransmission” (The Board of Trustees of the Leland Stanford Junior …, priority 2021, dated 2026)

Tests used:
Line 61 mice = experiment: Transgenic α-synuclein mouse model, tapered beam test; type: in vivo
Description: Line 61 mice overexpress human α-synuclein under control of the mouse Thy-1 promoter. The transgene is X-linked so females have variable transgene expression; for this reason, we focused on male mice. […] Categorical data from the tapered beam task were unblinded and analyzed by X square test (P<0.005).

Line 41 mice = experiment: Transgenic Aβ model of AD, behavior tests; type: in vivo; details: 10 mg/kg/d IP for 6 weeks
Procedure: Cerebral Aβ accumulation is a core feature of AD. Since memantine, a glutamate receptor subtype antagonist is an approved treatment for people with AD, we tested whether our false glutamatergic neurotransmitter might be therapeutic in a transgenic model of AD. Four month old Line 41 male mice were treated with S-2MeGlu at 10 mg/kg/d IP for 6 weeks with behavior tested using activity chamber, Y maze, novel object and novel place recognition, Morris water maze, and fear conditioning.

GluN2A = target: T1, GluN2A (Homo sapiens, UniProt Q12879); experiment: FLIPR functional assay, HEK 293 cells (agonist/PAM/antagonist); type: cell-based; details: top concentration 100 μM, read-out: IC50, functional antagonist receptor assay
T1 construct: host or cells: HEK 293 (stably expressing)
T1 sequence (Q12879 23-1464, other chains not shown): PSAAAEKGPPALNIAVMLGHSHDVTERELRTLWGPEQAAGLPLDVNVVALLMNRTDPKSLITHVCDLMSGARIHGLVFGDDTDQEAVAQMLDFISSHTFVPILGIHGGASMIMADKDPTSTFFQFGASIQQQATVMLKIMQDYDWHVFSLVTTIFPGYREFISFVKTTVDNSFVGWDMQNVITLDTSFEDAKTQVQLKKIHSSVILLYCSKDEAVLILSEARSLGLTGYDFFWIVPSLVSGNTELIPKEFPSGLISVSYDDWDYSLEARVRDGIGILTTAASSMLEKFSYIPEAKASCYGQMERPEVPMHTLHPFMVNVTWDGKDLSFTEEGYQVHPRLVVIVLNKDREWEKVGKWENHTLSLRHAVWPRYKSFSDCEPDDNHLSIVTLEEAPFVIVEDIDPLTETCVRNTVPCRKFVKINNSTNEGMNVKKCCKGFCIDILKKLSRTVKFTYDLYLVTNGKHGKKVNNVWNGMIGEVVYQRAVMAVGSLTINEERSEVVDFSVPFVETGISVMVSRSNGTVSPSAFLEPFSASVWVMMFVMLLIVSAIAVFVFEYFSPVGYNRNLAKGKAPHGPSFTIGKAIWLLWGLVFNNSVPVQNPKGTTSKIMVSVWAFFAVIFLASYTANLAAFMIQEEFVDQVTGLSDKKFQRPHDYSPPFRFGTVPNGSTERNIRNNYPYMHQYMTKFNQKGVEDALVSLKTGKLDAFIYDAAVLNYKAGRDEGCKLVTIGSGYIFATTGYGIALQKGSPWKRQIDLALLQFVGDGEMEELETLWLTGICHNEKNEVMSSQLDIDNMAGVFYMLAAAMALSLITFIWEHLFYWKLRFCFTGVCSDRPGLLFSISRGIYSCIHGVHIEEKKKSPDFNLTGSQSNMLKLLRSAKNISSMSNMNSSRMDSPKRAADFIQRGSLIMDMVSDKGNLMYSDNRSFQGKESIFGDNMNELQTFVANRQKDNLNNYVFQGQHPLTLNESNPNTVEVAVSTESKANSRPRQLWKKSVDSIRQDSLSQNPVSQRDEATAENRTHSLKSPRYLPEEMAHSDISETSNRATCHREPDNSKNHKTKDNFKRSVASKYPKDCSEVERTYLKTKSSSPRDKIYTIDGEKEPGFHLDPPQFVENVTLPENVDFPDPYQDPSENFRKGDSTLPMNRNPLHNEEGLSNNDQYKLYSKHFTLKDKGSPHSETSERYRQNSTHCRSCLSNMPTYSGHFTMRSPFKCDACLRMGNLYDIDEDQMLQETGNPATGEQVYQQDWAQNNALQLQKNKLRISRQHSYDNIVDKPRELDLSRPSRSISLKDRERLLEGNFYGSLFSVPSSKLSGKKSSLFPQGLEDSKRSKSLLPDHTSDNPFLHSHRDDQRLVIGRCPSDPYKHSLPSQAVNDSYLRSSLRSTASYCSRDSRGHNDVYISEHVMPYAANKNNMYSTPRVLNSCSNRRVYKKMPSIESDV
Procedure: Functional assays of all GABAA, NMDA (GluN2A-GluN2D) and AMPA (GluA2) receptor subunits were performed by SB Drug Discovery as a part of their CNS discovery panel using FLIPR technology. Briefly, receptor-expressing HEK 293 cell lines were incubated in a red membrane potential dye in HEPES:HBSS pH 7.4 buffer and the fluorescence (λex: 488, λex: 510-570) was monitored over time as the test compounds and/or reference compounds were added to the solution. In agonist assay, only test compounds were added. In positive allosteric modulator assay, cells were preincubated with test compounds and then low concentration (approximately EC20) of an appropriate agonist was added. In antagonist assay, cells were preincubated with test compounds and then high concentration (approximately EC80) of an appropriate agonist was added. For GABAA assays, GABA was used as the agonist, picrotoxin was used as the reference antagonist and allopregnanolone was used as the reference positive allosteric modulator (PAM). For NMDA assays, a mixture of glutamate, glycine and CaCl2 was used as the agonist, MK801 was the reference antagonist and pregnenolone sulfate or GNE 9278 were used as reference PAMs. For AMPA assays, glutamate was used as the agonist, CNQX was the reference antagonist and cyclothiazide was used as the reference PAM. All compounds were tested at 7 concentration points in triplicate and EC50/IC50 was determined where applicable. Functional GABAB assay was performed by Eurofins Discovery (Cerep) using Ca^2+-dependent fluorimetry in RBL cells expressing human GABAB (B1/B2) receptor. All compounds were tested at a single concentration of 100 uM in triplicate.
All receptor assays were performed exactly as described in Example 1. Functional assays of all GABAA, NMDA (GluN2A-GluN2D) and AMPA (GluA2) receptor subunits were performed by SB Drug Discovery as a part of their CNS discovery panel using FLIPR technology. All compounds were tested at 7 concentrations in triplicate and EC50/IC50 was determined where applicable. Functional GABAB assay was performed by Eurofins Discovery (Cerep) using Ca^2+-dependent fluorimetry in RBL cells expressing human GABAB (B1/B2) receptor. All compounds were tested at a single concentration of 100 uM in triplicate. Nonspecific AMPA, kainate and NMDA binding assays were performed by Eurofins Discovery (Cerep) using rat cerebral cortex membranes and radiolabeled [^3H]AMPA, [^3H]kainic acid and [^3H]CGP 39653, respectively. All compounds were tested at a single concentration of 100 uM in triplicate. mGluR1, mGluR2, mGluR5 and GABAB binding assays were performed by Eurofins Discovery. All compounds were tested at a single concentration of 100 uM in triplicate.

Structure (SMILES) | body weight or deaths (Line 61 mice; 5 or 50 mg/kg/d IP, seven days) | motor function, tapered beam (Line 61 mice; 7 days IP, high dose (50 mg/kg/d) S-2MeGlu, either dose (5 or 50 mg/kg/d) R-4APA) | α-synuclein accumulation in brain by immunohistochemistry vs vehicle (Line 61 mice; Line 61 mice) | Aβ accumulation by immunohistochemistry (Line 41 mice) | behavior tests (activity chamber, Y maze, novel object and place recognition, Morris water maze, fear conditioning) (Line 41 mice) | body weights or deaths (Line 41 mice) | IC50 (GluN2A) [µM]
C[C@](N)(CCC(=O)O)C(=O)O [(S)-2MeGlu, (S)-2-methylglutamic acid] | no change in body weight or deaths | improved motor function similar to WT mice | no significant change | no change in Aβ accumulation | only rescued performance in the Y maze | no difference in body weights or any deaths | 
C[C@@](N)(CCC(=O)O)C(=O)O [(R)-2MeGlu, (R)-2-methylglutamic acid] |  |  |  |  |  |  | 69
